A short description of assay [1]: Body weight and food intake of mice fed 45% high-fat diet for 8 weeks. It counts as in vivo, C57BL/6 mice. To be noted: for Final wight: mean±SE. How it is done:
(§1) The 4 weeks-old male C57BL/6 mice were divided into 5 groups and treated with different feeding conditions, wherein the group 1 was the blank control fed with normal diet and water, the group 2 was fed with 45% high-fat diet and water, the group 3 was fed with 45% high-fat diet, water and 10 mg/Kg the compound TNHD, the group 4 was fed with 45% high-fat diet, water and 20 mg/Kg the compound TNHD, and the group 5 was fed with 45% high-fat diet, water and 200 mg/Kg Silymarin. Feeding for 8 weeks, and then all the mice were sacrificed.
At the end of the experiment, taking photographs of the each group were shown as FIG. 4.
The body weight and food intake in the each group were recorded in the table 1, wherein the data is expressed as the mean±SE.

For assay [2], the system named is fatty liver and obesity animal model prepared by ethanol-containing diet (Lieber-DeCarli). The assay is described as follows: Fatty liver and obesity animal model prepared by ethanol-containing diet (Lieber-DeCarli). Type of assay: in vivo. The conditions noted are these: FIGS. 9 to 14.
In another assay the test system is liver. The assay is described as follows: Organ weights, liver appearance and liver staining (H&E, Surius red) of mice fed 45% high-fat diet. It counts as in vivo, C57BL/6 mice. To be noted: for Liver weight: 8 weeks. The protocol: as §1
The weights of liver, kidney and spleen of the mice in the each group were measured and recorded in table 2. The macroscopic appearance of the liver from the mice of the each group was shown as FIG. 6. Furthermore, the liver collected from the sacrificed mice in each groups was fixed with formalin. After the fixation, the liver tissue of the each group was paraffin-embedded for histology section and stained by H&E and Surius red for analysis.

The values below come from patent US10285972B2, “Trans-2-nonadecyl-4-hydroxymethyl-1,3-dioxolane and producing methodthereof” (Greenyn Biotechnology Co., Ltd, priority 2014, dated 2019).

As for `CCCCCCCCCCCCCCCCCCC[C@@H]1OC[C@@H](CO)O1` (relative stereo) [TNHD, trans-2-nonadecyl-4-hydroxymethyl-1,3-dioxolane], the “Effect on body weight, high dose compared with low dose” value in assay [1] (45% high-fat diet mice, 20 mg/Kg vs 10 mg/Kg) is “high dose is more effective”. For the same compound, the “Effect on body weight increase of obesity mouse” value in assay [1] (45% high-fat diet mice, 10 or 20 mg/Kg, 8 weeks) was “prevent and inhibit the body weight of obesity mouse to increase”. The “Effect on weight loss compared with Silymarin” value in assay [1] (45% high-fat diet mice, Silymarin 200 mg/Kg) is recorded as “more effective to weight loss than Silymarin”. Further, the Final wight in assay [1] (group 3: 45% high-fat diet + 10 mg/Kg TNHD, 8 weeks) was determined as 29.8 ± 2.0 g; in assay [1] (group 4: 45% high-fat diet + 20 mg/Kg TNHD, 8 weeks), 28.1 ± 1.6 g. Further, the “Effect on obesity, fatty liver or liver damage caused by alcohol” value in assay [2] is given as “effective to treat or/and prevent obesity, fatty liver or liver damage caused by alcohol”. In addition, the “Lipid accumulation in the liver (H&E and Surius red staining)” value in the assay on liver (45% high-fat diet mice, FIGS. 7 and 8) is recorded as “inhibit the lipid accumulation in the liver effectively”. The values for the Liver weight with liver (group 3: 45% high-fat diet + 10 mg/Kg TNHD) and with liver (group 4: 45% high-fat diet + 20 mg/Kg TNHD) were 5.23 ± 0.84 g and 5.63 ± 0.61 g, respectively. Further, the “Macroscopic appearance of the liver” value with liver (group 3 or group 4 (10 or 20 mg/Kg), 45% high-fat diet, FIG. 6) was “the liver shows the red color and has smooth surface”.
